Data from ChEMBL document CHEMBL1201862, “PubChem BioAssay data set” (2004).
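96-well plates; 48 h exposure; 5 concentrations. Endpoints by linear interpolation between flanking doses. Not reached: highest tested concentration assigned. Here, GI50 denotes the concentration required for 50% inhibition of growth.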 Activity calls are given as the source filed them. No stated cut-off is given here; in the data, active = GI50 up to about 1.1 µM and inactive = higher.

What was measured:
Assay in all cases: NCI-60 cell line screen, 48 h
[1] = system: A498
[2] = system: ACHN
[3] = system: BT-549
[4] = system: EKVX
[5] = system: HCT-116
[6] = system: HCT-15
[7] = system: HL-60
[8] = system: HT-29
[9] = system: M14
[10] = system: MCF7
[11] = system: MDA-MB-435
[12] = system: Malme-3M
[13] = system: NCI-H226
[14] = system: NCI-H522
[15] = system: OVCAR-5
[16] = system: OVCAR-8
[17] = system: SK-OV-3
[18] = system: U-251
[19] = system: UACC-257
[20] = system: UO-31

Row | Structure (SMILES) | GI50 [1] | GI50 [2] | GI50 [3] | GI50 [4] | GI50 [5] | GI50 [6] | GI50 [7] | GI50 [8] | GI50 [9] | GI50 [10] | GI50 [11] | GI50 [12] | GI50 [13] | GI50 [14] | GI50 [15] | GI50 [16] | GI50 [17] | GI50 [18] | GI50 [19] | GI50 [20]
1 | S=c1cc(-c2ccc3c(c2)OCO3)s[nH]1 | 46.6 µM (inactive) | > 100 µM (inactive) | > 100 µM (inactive) | > 100 µM (inactive) | > 100 µM (inactive) | > 100 µM | > 100 µM (inactive) | > 100 µM (inactive) | > 100 µM (inactive) | > 100 µM (inactive) | > 100 µM (inactive) | > 100 µM (inactive) | 58.5 µM (inactive) | 5.81 µM (inactive) | > 100 µM (inactive) | > 100 µM (inactive) | > 100 µM (inactive) | > 100 µM (inactive) | > 100 µM (inactive) | > 100 µM (inactive)
2 | CC(=O)OC1CC2(C)C(=CC1C1SCCS1)CCC1C2CCC2(C)C(OC(C)=O)CCC12 (stereo not given) | 70 µM (inactive) | > 100 µM (inactive) | > 100 µM (inactive) | > 100 µM (inactive) | > 100 µM (inactive) | > 100 µM | > 100 µM (inactive) | > 100 µM (inactive) | > 100 µM (inactive) | 68.4 µM (inactive) | > 100 µM (inactive) | > 100 µM (inactive) | > 100 µM (inactive) | 37 µM (inactive) | > 100 µM (inactive) | > 100 µM (inactive) | 27.9 µM (inactive) | 32.3 µM (inactive) | > 100 µM (inactive) | > 100 µM (inactive)
3 | O=C(NCCCN(CCCCN(CCCNC(=O)C(F)(F)F)Cc1ccccc1)Cc1ccccc1)C(F)(F)F | 20.6 µM (inactive) | 16.5 µM (inactive) | 14.9 µM (inactive) | 12.6 µM (inactive) | 11.5 µM (inactive) | 12.4 µM | 12.9 µM (inactive) | 6.49 µM (inactive) | 3.49 µM (inactive) | 12.3 µM (inactive) | 18.3 µM (inactive) | 15.1 µM (inactive) | 17.2 µM (inactive) | 9.51 µM (inactive) | 19.9 µM (inactive) | 14 µM (inactive) | 20.1 µM (inactive) | > 10 µM (inactive) | 5.07 µM (inactive) | 4.63 µM (inactive)
4 | CC1(O)CC23CC1CCC2(C)C12CCCC(C)(C(=O)O1)C2CC3O (stereo not given) | > 100 µM (inactive) | > 100 µM (inactive) | > 100 µM (inactive) | > 100 µM (inactive) | > 100 µM (inactive) | > 100 µM | > 10 µM (inactive) | > 100 µM (inactive) | > 100 µM (inactive) | > 100 µM (inactive) | > 100 µM (inactive) | > 100 µM (inactive) | > 100 µM (inactive) | > 100 µM (inactive) | > 100 µM (inactive) | > 100 µM (inactive) | > 100 µM (inactive) | > 100 µM (inactive) | > 100 µM (inactive) | > 100 µM (inactive)
5 | C[N+](C)=C/C=C(\Cl)c1ccc2ccccc2c1 | > 63 µM (inactive) | 14 µM (inactive) | 17.7 µM (inactive) | 24.5 µM (inactive) | 2.76 µM (inactive) | 2.62 µM | 6.52 µM (inactive) | 7.64 µM (inactive) | 6.62 µM (inactive) | 19 µM (inactive) | 16.7 µM (inactive) | 11.8 µM (inactive) | 17.3 µM (inactive) | 21.4 µM (inactive) | 19.9 µM (inactive) | 9.66 µM (inactive) | 18 µM (inactive) | 11.4 µM (inactive) | 12.2 µM (inactive) | 17 µM (inactive)
